Assay results reported in patent US10765687B2, “Methods and compounds to inhibit enveloped virus release” (Northwestern University, priority 2012, dated 2020).
“Also recorded” adds a separate entry of the source. One block for each molecule: values may come before it. No end group written: not given here.

Assays:
WWP2 (SEQ ID NO:24) [1] = target: T1, WWP2 (SEQ ID NO:24) (Homo sapiens, UniProt O00308); experiment: Epic label-free binding assay of compounds to immobilized WWP2
T1 construct: poly-His (pET28b leader with thrombin site) (N, cleaved yes); made in house; host or cells: E. coli BL21 DE3
Description: Another preferred embodiment of an in vitro screening method is depicted in FIG. 3. In this method, the ability of the candidate compound 204 to directly interact with the cellular ESCRT-linked component protein (for example, Nedd4 family of polypeptides [for example, WWP1 (SEQ ID NO:29), WWP2 (SEQ ID NO:24), Nedd4 L, among others]) or TGS101 is evaluated. According to this embodiment, a cellular ESCRT component protein 202 is preferably immobilized to a substrate 201 (for example, a microtiter plate) via a linking group 203 (for example, an amine group). The substrate preferably includes an optional reference area that provides a control to prevent non-specific interactions with non-mobilized ESCRT complex protein 202 with substrate 201. The substrate 201 is washed and irradiated with broadband light so that a baseline refractive index is measured. Test compound 204 is added to the system to permit its binding to the immobilized ESCRT component protein 202 to form a resultant associative complex 205. The substrate 201 is irradiated with broadband light again to detect a change in the wavelength of the reflected light.
High sensitivity biochemical plates (PerkinElmer Cat. No. 6057468) are used in WWP2 (SEQ ID NO:24) binding assay to maximize protein immobilization. […] Because compound stocks are in DMSO that affects the Epic label-free readout, the compound plates were prepared by Echo550 acoustic dispenser to keep DMSO content balanced for all wells. […]
The binding of compounds to WWP2 (SEQ ID NO:24) was measured on the EnSpire label-free plate reader. After 25 minutes of thermal equilibration, a baseline reading was taken on the label-free plates with protein immobilized in assay buffer. […] The final reading was taken after 25 min of thermal equilibration and over a period of 60 minutes. The label-free responses were measured as shifts in reflected wavelength and were expressed in picometers (pm). Results were analyzed using the EnSpire label-free user interface software. […]

WWP2 (SEQ ID NO:24) [2] = target: T1, WWP2 (SEQ ID NO:24); experiment: Fluorescence polarization assay (FITC/TAMRA) for disruption of WWP2 binding to PY-motif peptide probe; settings: SEQ ID NO: 17 probe with FITC or TAMRA label; read-out: [compound] to achieve 50% change in fluorescence polarization in FP Assay
Description: (§1) Screens for compounds that disrupt the binding of the FTIC-peptide and WWP2 (SEQ ID NO:24) were carried out in 384-well plate format with 25 ml assay volume at ˜0.5 mM WWP2. Non-binding solid black plates (Corning Costar 3575) were used. The assay buffer contained 20 mM Tris and 150 mM NaCl at pH 7.9. FP was measured on either a Biotek Synergy4 or an Analyst GT plate reader. Data analysis was performed using the in-house software excelHTS. […] Each assay plate included 16 negative control wells containing protein-probe mix but no compounds and 16 wells containing only probe.

HSV-1 (strain F) = experiment: HSV-1 virus production and release from infected Vero cells, plaque assay; assay type: cell-based; settings: FIG. 8A
Description: Vero cells were inoculated with HSV-1 (strain F) at a multiplicity of infection (MOI) of 0.01 for 2 hr. The cells were washed and treated with 0.10 M sodium citrate buffer to inactivate viruses on the outside of the cells (for example, in the culture medium). The culture medium was replaced with fresh culture medium containing no inhibitor compound or different concentrations (40 μM or 80 μM) of inhibitor compounds F15 or N16 (candidate PTAP motif inhibitors against the TSG101 peptide [SEQ ID NO:33]) for 48 hr. The supernatants (culture medium) and total cells (culture medium and cells) were collected for determining infectious virus titer. The virus titers were determined by standard plaque assay on Vero cells.
Vero cells were grown in DMEM supplemented with 10% FBS. Viral infections were performed in DMEM supplemented with 1% heat-inactivated FBS. Vero cells were inoculated HSV-1 (strain F) at indicated concentrations, after 2 h, the cells were washed and treated with 0.1 M sodium citrate buffer (pH 3.0) for 1 min to inactivate unpenetrated viruses, washed again and incubated with fresh medium containing 1% heat-inactivated FBS. […] Then virus titers were determined by standard plaque assay on Vero cells.

[3] = target: T2, WWP2 polypeptide (SEQ ID NO:24) (Homo sapiens, UniProt O00308); experiment: Fluorescence polarization WWP2 protein dose-response, binding of PY-motif peptide probes
T2 construct: poly-His (pET28b leader with thrombin site) (N, cleaved yes); made in house; host or cells: E. coli BL21 DE3
Description: as §1, with “Screens for compounds that disrupt the binding of the FTIC-peptide and WWP2 (SEQ ID NO:24) were carried out in 384-well plate format with 25 ml assay volume at ˜0.5 mM WWP2.” left out

TSG101 (SEQ ID NO:33) = target: T3, TSG101 (SEQ ID NO:33) (Homo sapiens, UniProt Q99816); experiment: Fluorescence-based thermal shift (FTS) assay; assay type: binding; settings: FIG. 7
T3 construct: polyhistidine leader with thrombin cleavage site (pET28b) (N); TEV cleavage site (N); made in house
T3 sequence (Q99816 with tags, fused parts or gaps): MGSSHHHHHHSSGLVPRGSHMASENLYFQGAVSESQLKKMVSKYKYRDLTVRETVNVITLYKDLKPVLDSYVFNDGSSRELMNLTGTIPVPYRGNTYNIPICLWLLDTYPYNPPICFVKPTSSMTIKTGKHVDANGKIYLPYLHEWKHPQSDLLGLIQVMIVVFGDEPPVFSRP
Description: The fluorescence-based thermal shift assay is based on the observation that a protein unfolds upon heating, exposing the hydrophobic residues within its tertiary structure. The unfolding temperature (Tm) is determined by the protein's primary sequence and solution environment. The FTS assay uses a fluorescent dye sensitive to a hydrophobic environment to probe protein stability and its modulation by small molecule ligands. The dye has a low fluorescence quantum yield when in a polar environment. […] J Biomol Screen 6: 429-440; Lo M C, Aulabaugh A, Jin G, Cowling R, Bard J, et al. (2004) Evaluation of fluorescence-based thermal shift assays for hit identification in drug discovery. […]
The NU-HTA has developed a robotic pipeline for small molecule protein ligand screening by FTS. See Luan C H, Light S H, Dunne S F, Anderson W F. Ligand screening using Fluorescence Thermal Shift Analysis (FTS). […] The pipeline uses an Echo550 acoustic transfer robot (Labcyte, CA) for compound addition and the Mosquito robot (TTP LabTechnologies, UK) for protein dispensing followed by thermal scanning coupled with fluorescence detection which is performed on a real-time PCR machine CFX384 (Bio-Rad Laboratories). […]

Vero cells = experiment: MTS cytotoxicity assay; settings: 0 μM to 100 μM, uninfected cells, absorbance at 490 nm, FIG. 8B; listed as N16
Description: The cytotoxicity of the compounds was determined by a commercially available assay (Celltiter 96® AQueous One Solution cell proliferation assay reagent; Promega, Madison, Wis.), as described previously (Akkarawongsa et al., 2006). The CellTiter 96® AQueous One Solution Cell Proliferation Assay is a colorimetric method for determining the number of viable cells in proliferation, cytotoxicity or chemosensitivity assays. The CellTiter 96® AQueous One Solution Reagent contains a tetrazolium compound [3-(4,5-dimethylthiazol-2-yl)-5-(3-carboxymethoxyphenyl)-2-(4-sulfophenyl)-2H-tetrazolium, inner salt; MTS] and an electron coupling reagent (phenazine ethosulfate; PES). PES has enhanced chemical stability, which allows it to be combined with MTS to form a stable solution. […] Assays are performed by adding a small amount of the CellTiter 96® AQueous One Solution Reagent directly to culture wells, incubating for 1-4 hours and then recording absorbance at 490 nm with a 96-well plate reader. The quantity of formazan product as measured by the amount of 490 nm absorbance is directly proportional to the number of living cells in culture.
Briefly, Vero cells (1.5×10^4 cells/well) were seeded in a 96-well plate, and the plate was incubated for 24 h at 37° C. […] The plate was then incubated for 2 h at 37° C., and the absorbance at 490 nm was determined with a 96-well plate reader (Perkin Elmer).

T1 sequence (O00308 with tags, fused parts or gaps): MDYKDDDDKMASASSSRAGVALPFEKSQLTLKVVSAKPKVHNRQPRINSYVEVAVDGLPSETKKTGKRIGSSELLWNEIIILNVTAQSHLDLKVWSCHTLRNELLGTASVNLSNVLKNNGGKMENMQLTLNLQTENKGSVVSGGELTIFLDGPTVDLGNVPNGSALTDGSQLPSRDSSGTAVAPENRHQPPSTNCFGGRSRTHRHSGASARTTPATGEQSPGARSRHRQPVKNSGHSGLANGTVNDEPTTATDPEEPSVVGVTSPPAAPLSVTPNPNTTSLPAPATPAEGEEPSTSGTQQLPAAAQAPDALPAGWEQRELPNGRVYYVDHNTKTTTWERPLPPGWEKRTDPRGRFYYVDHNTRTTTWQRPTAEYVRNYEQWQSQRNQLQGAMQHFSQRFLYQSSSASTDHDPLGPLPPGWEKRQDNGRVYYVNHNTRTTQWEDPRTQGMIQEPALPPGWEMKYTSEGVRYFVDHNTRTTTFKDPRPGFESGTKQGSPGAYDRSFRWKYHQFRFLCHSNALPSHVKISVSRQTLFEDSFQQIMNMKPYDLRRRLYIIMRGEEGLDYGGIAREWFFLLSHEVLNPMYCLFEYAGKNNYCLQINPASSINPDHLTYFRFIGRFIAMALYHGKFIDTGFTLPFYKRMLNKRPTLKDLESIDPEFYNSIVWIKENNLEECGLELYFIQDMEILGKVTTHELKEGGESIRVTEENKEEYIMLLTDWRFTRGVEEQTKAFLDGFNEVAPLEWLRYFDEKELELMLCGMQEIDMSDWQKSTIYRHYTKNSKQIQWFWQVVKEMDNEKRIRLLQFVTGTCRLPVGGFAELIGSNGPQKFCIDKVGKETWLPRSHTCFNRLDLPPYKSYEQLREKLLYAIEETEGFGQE
T2 sequence (O00308 with tags, fused parts or gaps): as above

Molecule: CC1=C(O)C(=O)C=C2C1=CC=C1[C@@]2(C)CC[C@@]2(C)[C@@H]3C[C@](C)(C(=O)O)CC[C@]3(C)CC[C@]12C [Celastrol, 3-Hydroxy-9β,13α-dimethyl-2-oxo-24,25,26-trinoroleana-1(10),3,5,7-tetraen-29-oic acid]
- Kd (WWP2 (SEQ ID NO:24) [1]): 18.5 µM

- IC50 (WWP2 (SEQ ID NO:24) [2]): 3 µM
Molecule: O=C1c2ccccc2C(=O)c2c(NC3CCCCC3)ccc(Nc3ccc(S(=O)(=O)O)cc3)c21 [NSC128437]

Molecule: COc1ccc2[n-]c([S@@+]([O-])Cc3ncc(C)c(OC)c3C)nc2c1.[K+] [Esomeprazole potassium, 5-methoxy-2-[(R)-[(4-methoxy-3,5-dimethylpyridin-2-yl)methane]sulfinyl]-1H-1,3-benzodiazole, potassium]
- HSV-1 virion release from cells (in words) (HSV-1 (strain F)): inhibit HSV-1 virion release from cells

Molecule: ATASAPPPYVGSGGGATASAPPPYVGSGGGATASAPPPYVGSGGGRRR [SEQ ID NO:17]
- Kd [3]: 0.2 µM

Molecule: COc1ccc2[nH]c([S+]([O-])Cc3ncc(C)c(OC)c3C)nc2n1 (racemic) [Tenatoprazole, (RS)-3-Methoxy-8-[(4-methoxy-3,5-dimethyl-pyridin-2-yl)methylsulfinyl]-2,7,9-triazabicyclo[4.3.0]nona-2,4,8,10-tetraene]
- Thermal shift in protein unfolding (Tm) of TSG101 (TSG101 (SEQ ID NO:33)): lower Tm
- HSV-1 virion release from cells (in words) (HSV-1 (strain F)): inhibit HSV-1 virion release from cells
- Cytotoxic effects on Vero cells (Vero cells): Neither inhibitor compound was cytotoxic; also recorded: not toxic; also recorded: did not display cytotoxic effects

Molecule: Cc1nn(-c2ccc(S(=O)(=O)[O-])cc2)c([O-])c1N=Nc1ccc(-c2ccc(N=Nc3ccc4c(S(=O)(=O)[O-])cc(S(=O)(=O)[O-])c(N)c4c3[O-])c([O-])c2)cc1[O-].[Cu+2].[Cu+2].[H+].[H+].[H+] [NSC306711]
- IC50 (WWP2 (SEQ ID NO:24) [2]): 1 µM

- IC50 (WWP2 (SEQ ID NO:24) [2]): 20 to 30 µM
Molecule: CCC(/C=C1\Sc2cc(Br)ccc2N1CC)=C\c1sc2cc(Br)ccc2[n+]1CC [CD23-G07]
